According to US12534583B2, “Compositions and polymer films” (Fujifilm Manufacturing Europe B.V., priority 2020, dated 2026):
Counter-ions that a name gives are not always drawn.

Assay: Solubility in water determined visually or by UV-spectrometry
Settings: 40° C. overnight, M = Li
Procedure: The solubility of the compounds of Formula (I) was determined visually or by UV-spectrometry. For each compound of Formula (I), three solutions were prepared: one solution at 30 wt %, one solution at 60 wt %, and one solution at 70 wt % containing a 1:1 molar ratio of the compound of Formula (I) with cross-linker Li-BVBSI. 500 ppm 40H-TEMPO was included in all three solutions to prevent premature polymerisation. The solutions were kept in a water bath of 40° C. overnight and centrifuged prior inspection. UV spectra were recorded in a Cary™ 100 UV-visible spectrophotometer from Agilent Technologies using a 1 mm path length quartz cuvette.

Compound	Solubility in water at 40° C.
C=Cc1ccc(S(=O)(=O)NS(=O)(=O)c2ccccc2)cc1 [MM-P, Benzenesulphonamide, 4-ethenyl-N-(phenylsulphonyl)-, lithium salt]	>60 wt %
C=Cc1ccc(S(=O)(=O)[O-])cc1.[Li+] [LiSS, Styrene sulphonate, lithium salt, reference compound]	40 wt %
C=Cc1ccc(S(=O)(=O)NS(C)(=O)=O)cc1 [MM-M, Benzenesulphonamide, 4-ethenyl-N-(methylsulphonyl)-, lithium salt]	>60 wt %
C=Cc1ccc(S(=O)(=O)NS(N)(=O)=O)cc1 [MM-A, Benzenesulphonamide, 4-ethenyl-N-(aminosulphonyl)-, lithium salt]	>60 wt %
C=Cc1ccc(S(=O)(=O)NS(=O)(=O)C(F)(F)F)cc1 [MM-Tf, Benzenesulphonamide, 4-ethenyl-N-[(trifluoromethyl)sulphonyl]-, lithium salt, reference compound]	>60 wt %
